Measurements taken from paper PMC10253812, “Novel 2-alkythio-4-chloro-N-[imino(heteroaryl)methyl]benzenesulfonamide Derivatives: Synthesis, Molecular Structure, Anticancer Activity and Metabolic Stability” (International Journal of Molecular Sciences, 2023).
Where two headings read alike, the source gives them in different places.

Tests used:
[1] = test system: MCF-7 (breast cancer) cell line; assay: MTT cell viability assay, MCF-7; format: cell-based, human; conditions: Homo sapiens, MCF7; for viability at 100 µM: MCF-7, MTT, 72 h, read-out: Viability of cell line in the presence of 100 μM of the tested compound
Protocol: (§1) Compounds 8–24 were evaluated in vitro for their cytotoxic effect against three human cancer cell lines, i.e., HeLa (cervical cancer), HCT-116 (colon cancer) and MCF-7 (breast cancer), and the non-tumor cell line HaCaT using the MTT assay after 72 h of incubation. The results of tests are presented in Table 1 as IC50, indicating the concentration required for 50% inhibition of cell viability. Compounds 8–10 and 14–18 are not presented in the Table 1 because of their low potency (IC50 > 100 µM).
(§2) All chemicals, if not stated otherwise, were obtained from Sigma-Aldrich (St. Louis, MO, USA). The MCF-7, HeLa and HaCaT cell lines were purchased from Cell Lines Services (Eppelheim, Germany), and the HCT-116 cell line was purchased from ATCC (ATCC-No: CCL-247). The cells were cultured in Dulbecco’s modified Eagle’s medium (DMEM) supplemented with 10% fetal bovine serum, 2 mM glutamine, 100 units/mL of penicillin and 100 μg/mL of streptomycin. The cultures were maintained in a humidified atmosphere with 5% CO2 at 37 °C, in an incubator (Heraeus, HeraCell).
(§3) Cytotoxicity assay: Cell viability was determined using the MTT (3-(4,5-dimethylthiazol-2-yl)-2,5diphenyltetrazoliumbromide) assay. The cells were seeded in 96-well plates at a density of 5 × 10^3 cells/well and treated for 24, 48 and 72 h with the examined compounds in the concentration range 1–100 μM. Following treatment, MTT (0.5 mg/mL) was added to the medium, and the cells were further incubated for 2 h at 37 °C. the cells were lysed with DMSO, and the absorbance of the formazan solution was measured at 550 nm with a plate reader (Victor, 1420 multilabel counter). The experiment was performed in triplicate. The values are expressed as the mean ± SD of at least three independent experiments.

[2] = test system: HeLa (cervical cancer) cell line; assay: MTT cell viability assay, HeLa; format: cell-based, human; conditions: for IC50: Homo sapiens, HeLa
Protocol: as §1
The cytotoxic activity of 11–13 was determined in a time-dependent manner with the MTT assay (Figure 3).
HeLa cells were treated with 11, 12 and 13 in the concentration range of 0–20 µM. […] After 48 h, the IC50 values for compounds 11, 12 and 13 were 6, 7 and 6 µM, respectively.
as §2, §3

[3] = test system: HCT-116 (colon cancer) cell line; assay: MTT cell viability assay, HCT-116; format: cell-based; conditions: Homo sapiens, 72 h of incubation
Protocol: as §1, §2, §3

[4] = test system: HaCaT (immortalized human keratinocytes); assay: MTT cell viability assay, non-tumor HaCaT; format: cell-based; conditions: Homo sapiens, HaCaT, 72 h of incubation, non-tumor cell line
Protocol: as §1
We also performed an assay on the non-tumor cell line HaCaT (immortalized human keratinocytes) to assess if the effect of 11–13 was selective toward HeLa cells or resulted from a more general toxic activity.
as §2, §3

[5] = In vitro metabolic stability assay; format: in vitro ADME, human; conditions: for half-life at 10 μM: pH 7.4, human liver microsomes 0.5 mg/mL, 1 mM NADPH, 10 μM compound, 37 °C, n = 3, read-out: in vitro metabolic half-life t1/2
Protocol: Human liver microsomes along with NADPH were used to assess their susceptibility to undergo first-phase oxidation reactions. The progress of biotransformation was followed by liquid chromatography–mass spectrometry. In order to support the in vitro results, we performed in silico calculations using the Human Liver Microsome-based model for CYP-mediated oxidations provided by the Xenosite online tool.
Stock solutions of the studied compounds were prepared at a concentration of 10 mM in DMSO. […] The incubation mixture contained the studied derivative at a 10 μM concentration, 1 mM NADPH (Sigma-Aldrich) and 0.5 mg/mL of human liver microsomes (HLM, Sigma-Aldrich) in potassium phosphate buffer (0.1 M, pH 7.4). The incubation was carried out in a thermostat at 37 °C and started by the addition of the compound of interest. Then, 20 μL samples were taken after 5, 15, 30, 45 and 60 min. The enzymatic reaction was terminated by the addition of an equal volume of ice-cold acetonitrile containing 10 μM sulfamethoxazole as an internal standard. Control incubations were performed without NADPH as a negative control reflecting NADPH-independent processes, such as chemical degradation and precipitation. After collection, the samples were immediately centrifuged (10 min, 10,000 rpm), and the resulting supernatant was directly analyzed or kept at −80 °C until LC-MS analysis. The natural logarithm of a compound over the IS peak area ratio was plotted vs. the incubation time.
The LC-MS analysis was performed on an Agilent 1260 system coupled to SingleQuad 6120 mass spectrometer (Agilent Technologies, Santa Clara, CA, USA). Poroshell EC-C18 (2.1 mm × 150 mm, 2.7 μm, Agilent Technologies, Santa Clara, CA, USA) was used in reversed-phase mode with gradient elution starting with 90% of phase A (0.1% formic acid in water) and 10% of phase B (0.1% dormic acid in acetonitrile). […] The total analysis time was 21 min at 25 °C, the flow rate was 0.5 mL/min, and the injection volume was 20 μL. The mass spectrometer was equipped with an electrospray ion source and operated in positive ionization mode. The mass analyzer was set for each individual compound to detectthe [M+H]^+ protonated molecule. The MSD parameters of the ESI source were as follows: nebulizer pressure 40 psig (N2), drying gas […] (N2), drying gas temperature 300 °C, capillary voltage 3.0 kV, fragmentor voltage 150 V.

HeLa cells = assay: Cell cycle distribution analysis (PI staining, flow cytometry); format: cell-based, human; conditions: 48 h; for percentage of cells in the sub-G1 phase of the cell cycle: HeLa, 5, 7 and 10 µM
Protocol: The effects of compounds 11, 12 and 13 on the cell cycle phase distribution of HeLa cells were assessed by flow cytometry. The cells were treated with 5, 7 and 10 µM concentrations of […] and 13 for 48 h and stained with PI.
Cell Cycle Distribution Analysis: The effects of 11, 12 and 13 on the cell cycle distribution in HeLa cells were determined by flow cytometry analysis. The cells were treated with 11, 12 and 13 (5, 7 and 10 µM) for 48 h, after which they were fixed in cold 70% ethanol for 24 h. The fixed cells were treated with 100 µg/mL of RNAse (Invitrogen, Germany) and stained with 10 µg/mL of PI (Invitrogen, Germany) for 30 min at RT. The acquisition was performed on a FACSCalibur cytometer (BD), and the data were analyzed with Flowing software (version 2.5).

[6] = MTT assay, 72 h of incubation, read-out: IC50 HeLa
[7] = MTT, 24 h of treatment, 0–20 µM

Row | SMILES | IC50 ([1]; MTT assay, 72 h of incubation) [µM] | IC50 [2, 6] [µM] | IC50 HeLa after 24 h [2, 7] | IC50 [3] [µM] | IC50 [4] [µM] | half-life at 10 μM [5] [min] | percentage of cells in the sub-G1 phase of the cell cycle (HeLa cells) | viability at 100 µM [1] [%] | relative metabolic stability in vitro ([5]; human liver microsomes with NADPH, order 12 > 13 > 11) | cell cycle arrest (HeLa cells; HeLa, 7 and 10 μM) | IC50 ([2]; MTT, 24 h of treatment, 0–20 µM, read-out: IC50 HeLa after 24 h) [µM]
1 | Cc1cc(S(=O)(=O)NC(=N)n2ccn(C)c2=S)c(SCc2ccc(Cl)cc2)cc1Cl [Compound 11, 4-Chloro-N-[imino(3-methyl-2-thioxo-2,3-dihydro-1H-imidazol-1-yl)methyl]-5-methyl-2-(4-chlorobenzylthio)benzenesulfonamide] | > 100 | 6 ± 0.1 | not reached | 11 ± 0.3 | 18 ± 0.5 | 9.1 | increase in the percentage of cells in the sub-G1 phase | – | – | – | –
2 | Cc1cc(S(=O)(=O)NC(=N)n2ccn(C)c2=S)c(SCc2cc3c(cc2Cl)OCO3)cc1Cl [Compound 12] | – | 7 ± 0.3 | not reached | > 100 | 20 ± 1 | 20.3 | increase in the percentage of cells in the sub-G1 phase | 100 | exhibited the best stability in vitro among the studied set of compounds | induced G2/M arrest | –
3 | Cc1cc(S(=O)(=O)NC(=N)n2ccn(C)c2=S)c(SCc2cccc3ccccc23)cc1Cl [Compound 13, 4-Chloro-N-[imino(3-methyl-2-thioxo-2,3-dihydro-1H-imidazol-1-yl)methyl]-5-methyl-2-(naphthalen-1-ylmethylthio)benzenesulfonamide] | – | 6 ± 0.1 | – | 73 ± 2 | 18 ± 0.5 | 13.9 | increase in the percentage of cells in the sub-G1 phase | 100 | – | – | 18
